Data reported in the supplement of paper PMC13380429.

Experiments:
Details in all cases: 72 h
U2OS [1] = assay: cell viability relative to DMSO; higher = less toxic
Calu-3 [2] = assay: as above
Caco-2 [3] = assay: as above
U2OS [4] = assay: drug sensitivity score (DSS) for viability; higher = more toxic; extreme values may be limits of the assay
Calu-3 [5] = assay: as above
Caco-2 [6] = assay: as above
U2OS [7] = assay: relative viability EC50 (midpoint between 100% and the lowest measured viability); higher = less toxic
Calu-3 [8] = assay: as above
Caco-2 [9] = assay: as above
HepG2 [10] = assay: drug sensitivity score (DSS) for viability; higher = more toxic; extreme values may be limits of the assay
Vero E6 [11] = assay: as above
HepG2 [12] = assay: cell viability relative to DMSO; higher = less toxic
HepG2 [13] = assay: relative viability EC50 (midpoint between 100% and the lowest measured viability); higher = less toxic
Vero E6 [14] = assay: cell viability relative to DMSO; higher = less toxic

| Structure (SMILES) | cell viability (U2OS [1]; 1 nM) [%] | cell viability (U2OS [1]; 10 nM) [%] | cell viability (U2OS [1]; 100 nM) [%] | cell viability (U2OS [1]; 1000 nM) [%] | cell viability (U2OS [1]; 10000 nM) [%] | cell viability (Calu-3 [2]; 1 nM) [%] | cell viability (Calu-3 [2]; 10 nM) [%] | cell viability (Calu-3 [2]; 100 nM) [%] | cell viability (Calu-3 [2]; 1000 nM) [%] | cell viability (Calu-3 [2]; 10000 nM) [%] | cell viability (Caco-2 [3]; 1 nM) [%] | cell viability (Caco-2 [3]; 10 nM) [%] | cell viability (Caco-2 [3]; 100 nM) [%] | cell viability (Caco-2 [3]; 1000 nM) [%] | cell viability (Caco-2 [3]; 10000 nM) [%] | drug sensitivity score (U2OS [4]) | drug sensitivity score (Calu-3 [5]) | drug sensitivity score (Caco-2 [6]) | relative viability EC50 (U2OS [7]) [µM] | relative viability EC50 (Calu-3 [8]) [µM] | relative viability EC50 (Caco-2 [9]) [µM] | drug sensitivity score (HepG2 [10]) | drug sensitivity score (Vero E6 [11]) | cell viability (HepG2 [12]; 1 nM) [%] | cell viability (HepG2 [12]; 10 nM) [%] | cell viability (HepG2 [12]; 100 nM) [%] | cell viability (HepG2 [12]; 1000 nM) [%] | cell viability (HepG2 [12]; 10000 nM) [%] | relative viability EC50 (HepG2 [13]) [µM] | cell viability (Vero E6 [14]; 1 nM) [%] | cell viability (Vero E6 [14]; 10 nM) [%] | cell viability (Vero E6 [14]; 100 nM) [%] | cell viability (Vero E6 [14]; 1000 nM) [%] | cell viability (Vero E6 [14]; 10000 nM) [%] |
| --- | --- | --- | --- | --- | --- | --- | --- | --- | --- | --- | --- | --- | --- | --- | --- | --- | --- | --- | --- | --- | --- | --- | --- | --- | --- | --- | --- | --- | --- | --- | --- | --- | --- | --- |
| C[C@@H](O)[C@H]1C(=O)N2C(C(=O)O)=C(S[C@@H]3CN[C@H](C(=O)N(C)C)C3)[C@H](C)[C@H]12 [meropenem] | 101 | 102 | 99.9 | 104 | 102 | 96.1 | 109 | 88.9 | 104 | 98.5 | 83.8 | 99.6 | 91.3 | 111 | 84.3 | 0 | 0 | 0.1 | > 10 | > 10 | > 10 |  |  |  |  |  |  |  |  |  |  |  |  |  |
| COc1ccc(-c2ccc3c(N4CCOCC4)nc(N4C[C@@H](C)O[C@@H](C)C4)nc3n2)cc1CO |  |  |  |  |  |  |  |  |  |  |  |  |  |  |  | 5.1 | 10.1 |  |  |  |  | 7.2 | 4.6 |  |  |  |  |  |  |  |  |  |  |  |
| O=P1(NCCCl)OCCCN1CCCl (configuration not stated) [ifosfamide] |  |  |  |  |  | 95.2 | 104 | 97.7 | 95.5 | 88.7 | 104 | 107 | 94.1 | 95.4 | 101 |  | 0 | 0 |  | > 10 | > 10 | 0 |  | 107 | 98.1 | 95.9 | 102 | 109 | > 10 |  |  |  |  |  |
| COC(=O)N[C@H](C(=O)N1CCC[C@H]1c1ncc(-c2ccc(-c3ccc(-c4cnc([C@@H]5CCCN5C(=O)[C@@H](NC(=O)OC)C(C)C)[nH]4)cc3)cc2)[nH]1)C(C)C [daclatasvir] | 104 | 101 | 101 | 102 | 90.3 | 107 | 90.6 | 93.1 | 96.1 | 99.7 | 104 | 96.1 | 107 | 98.7 | 83.1 | 0 | 0 | 0.5 | > 10 | > 10 | > 10 | 0 |  | 120 | 116 | 112 | 106 | 92 | > 10 |  |  |  |  |  |
| COc1cc(S(C)(=O)=O)ccc1Nc1nc2ccc(-c3ccc(NC(=O)[C@H](C)c4ccc(F)cc4)cc3)cn2n1 [Mps1-IN-5] | 99.9 | 99.6 | 94.2 | 66.7 | 70.6 | 101 | 94.6 | 94.6 | 101 | 91.8 | 97.7 | 96.4 | 103 | 78.2 | 87.4 | 6.7 | 0 | 2.9 |  | > 10 | > 10 | 7.9 | 6.6 | 106 | 108 | 106 | 56.2 | 49.2 | 0.508 | 101 | 97 | 95.2 | 66.4 | 71.5 |
| Nc1cc(F)ccc1NC(=O)/C=C/c1cnn(C/C=C/c2ccccc2)c1 [RGFP966] | 92.9 | 104 | 92.2 | 89.5 | 68.6 | 99.3 | 106 | 89.2 | 87.6 | 51.4 | 100 | 98.9 | 92.6 | 91.2 | 76.7 | 2.2 | 4.1 | 1.4 |  |  | > 10 | 4.4 | 2.2 | 93.2 | 105 | 96.4 | 87.2 | 52.4 |  | 104 | 106 | 105 | 95.9 | 66.2 |
| COC(=O)[C@H](Cc1ccccc1)NC(=O)[C@@H](N)CC(=O)O [aspartame] | 99.8 | 99.7 | 98.6 | 103 | 101 | 91.2 | 100 | 92.8 | 89.4 | 96.5 | 97.8 | 99.1 | 101 | 99.6 | 94 | 0 | 0 | 0 | > 10 | > 10 | > 10 | 0 |  | 98.3 | 91.6 | 98.2 | 94.3 | 102 | > 10 |  |  |  |  |  |
| Cc1ccc(NC2=NCCN2)c(Cl)c1 [tolonidine] | 101 | 106 | 97.3 | 102 | 96.3 | 101 | 112 | 96.5 | 106 | 99.3 | 90.3 | 101 | 93.9 | 99 | 99.5 | 0 | 0 | 0 | > 10 | > 10 | > 10 | 0 |  | 116 | 109 | 109 | 99 | 111 | > 10 |  |  |  |  |  |
| Cc1cccc(C)c1NC(=O)c1ccc(N)cc1 [ameltolide] | 97 | 103 | 94.6 | 99.2 | 94.2 | 95.7 | 92.7 | 83 | 92.5 | 97.1 | 89.3 | 94.4 | 102 | 110 | 85.4 | 0 | 0 | 0.1 | > 10 | > 10 | > 10 | 0 |  | 99.6 | 89.3 | 86.2 | 76 | 98.7 | > 10 |  |  |  |  |  |
| CNc1cc2c(Nc3cccc(Br)c3)ncnc2cn1 | 99.4 | 97.6 | 98.3 | 92.2 | 89.6 | 101 | 98.4 | 93.9 | 53.5 | 37.7 | 102 | 92.5 | 91.2 | 84.5 | 49.7 | 0 | 9.5 | 4.4 | > 10 | 0.47 | 1.55 | 1.6 | 6.2 | 93.8 | 105 | 95.9 | 100 | 64.9 |  | 92.4 | 97.3 | 88.4 | 72.4 | 53.1 |
| CN1C[C@@H]2C[C@H]1CN2c1cc2c(cc1F)c(=O)c(C(=O)O)cn2C1CC1 [danofloxacin] |  |  |  |  |  |  |  |  |  |  |  |  |  |  |  | 0 | 0 |  |  |  |  | 0 | 0 |  |  |  |  |  |  |  |  |  |  |  |
| CC(C)(C)c1cc(C(C)(C)C)c(NC(=O)c2c[nH]c3ccccc3c2=O)cc1O [ivacaftor] | 100 | 103 | 95.3 | 103 | 86.8 | 97.2 | 103 | 93.3 | 91.1 | 84.1 | 104 | 98.8 | 99.6 | 101 | 81.6 | 0.1 | 0.7 | 0.4 | > 10 | > 10 | > 10 | 0 |  | 105 | 105 | 100 | 100 | 98.3 | > 10 |  |  |  |  |  |
| CC(C)(C)NCC(O)COc1ccc(NC(=O)NC2CCCCC2)cc1 (configuration not stated) [talinolol] |  |  |  |  |  |  |  |  |  |  |  |  |  |  |  | 0 | 0 |  |  |  |  | 0 | 0 |  |  |  |  |  |  |  |  |  |  |  |
| CC(=O)N(CC(O)CN(C(C)=O)c1c(I)c(C(=O)NCC(O)CO)c(I)c(C(=O)NCC(O)CO)c1I)c1c(I)c(C(=O)NCC(O)CO)c(I)c(C(=O)NCC(O)CO)c1I (configuration not stated) [iodixanol] | 95.4 | 101 | 95.6 | 108 | 97.5 | 88.1 | 107 | 95.9 | 97.2 | 96.3 | 96.9 | 102 | 87 | 102 | 102 | 0 | 0 | 0 | > 10 | > 10 | > 10 | 0 |  | 107 | 99.2 | 108 | 102 | 105 | > 10 |  |  |  |  |  |
| O=C(O)c1ccccc1O [salicylic-acid] | 99.8 | 99.6 | 98.5 | 96.5 | 102 | 105 | 91.8 | 90.6 | 88.9 | 105 | 103 | 97 | 105 | 94.7 | 96.6 | 0 | 0 | 0 | > 10 | > 10 | > 10 | 0 |  | 95.4 | 96.1 | 99.3 | 97 | 108 | > 10 |  |  |  |  |  |
